# pEC50: −log10 of the molar value.
# Biological target: T1, human mGluR2 (Homo sapiens, UniProt Q14416)
# T1 construct: expressed in transfected cells
# Test: [35S]-GTPγS binding assay of mGluR2 receptor activation (allosteric activator activity)
# Format: biochemical
# Settings: membranes from CHO cells stably expressing human mGluR2; in presence of 1 μM glutamate
# Procedure: A [^35S]-GTPγS binding assay was used to functionally assay mGluR2 receptor activation. The allosteric activator activity of compounds at the human mGluR2 receptor was measured using a [^35S]-GTPγS binding assay with membranes prepared from CHO cells which stably express the human mGluR2. The assay is based upon the principle that agonists bind to G-protein coupled receptors to stimulate GDP-GTP exchange at the G-protein. Since [^35S]-GTPγS is a non-hydrolysable GTP analog, it can be used to provide an index of GDP-GTP exchange and, thus, receptor activation. The GTPγS binding assay therefore provides a quantitative measure of receptor activation.
# Membranes were prepared from CHO cells stably transfected with human mGluR2. Membranes (30 μg protein) were incubated with test compound (3 nM to 300 μM) for 15 minutes at room temperature prior to the addition of 1 μM glutamate, and incubated for 30 min at 30° C. in 500 μl assay buffer (20 mM HEPES, 100 mM NaCl, 10 mM MgCl2), containing 30 μM GDP and 0.1 nM [^35S]-GTPγS (1250 Ci/mmol). Reactions were carried out in triplicate in 2 ml polypropylene 96-well plates. Reactions were terminated by vacuum filtration using a Packard 96-well harvester and Unifilter-96, GF/B filter microplates. The filter plates were washed 4×1.5 ml with ice-cold wash buffer ([…] sodium phosphate buffer, pH 7.4). The filter plates were dried and 35 μl of scintillation fluid (Microscint 20) was added to each well. The amount of radioactivity bound was determined by counting plates on the Packard TopCount. Data was analyzed using GraphPad Prism, and EC50 and Emax values (relative to the maximum glutamate effect) were calculated using non-linear regression.
# T1 sequence (Q14416 19-872): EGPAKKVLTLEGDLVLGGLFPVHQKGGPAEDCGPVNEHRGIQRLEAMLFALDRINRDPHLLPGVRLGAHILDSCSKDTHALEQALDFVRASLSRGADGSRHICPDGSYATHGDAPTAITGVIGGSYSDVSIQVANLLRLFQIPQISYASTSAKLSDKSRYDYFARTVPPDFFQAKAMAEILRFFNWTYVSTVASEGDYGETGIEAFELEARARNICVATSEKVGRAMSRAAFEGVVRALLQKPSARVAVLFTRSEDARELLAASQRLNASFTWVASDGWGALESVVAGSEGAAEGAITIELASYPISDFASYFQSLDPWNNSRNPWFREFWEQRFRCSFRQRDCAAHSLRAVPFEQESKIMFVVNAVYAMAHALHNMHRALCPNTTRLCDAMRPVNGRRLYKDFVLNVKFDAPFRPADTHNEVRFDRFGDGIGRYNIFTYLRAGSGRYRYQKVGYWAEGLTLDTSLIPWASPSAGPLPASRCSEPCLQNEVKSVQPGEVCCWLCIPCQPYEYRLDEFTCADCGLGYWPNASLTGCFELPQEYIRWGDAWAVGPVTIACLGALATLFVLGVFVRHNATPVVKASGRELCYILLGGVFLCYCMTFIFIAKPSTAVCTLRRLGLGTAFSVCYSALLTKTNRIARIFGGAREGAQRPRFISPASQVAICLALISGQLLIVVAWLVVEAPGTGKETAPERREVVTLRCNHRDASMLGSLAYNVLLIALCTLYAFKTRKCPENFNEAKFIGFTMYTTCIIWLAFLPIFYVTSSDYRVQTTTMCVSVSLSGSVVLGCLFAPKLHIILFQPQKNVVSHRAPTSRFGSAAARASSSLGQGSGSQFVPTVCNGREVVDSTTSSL
row,pEC50,SMILES
1,7.24,"Cc1cccc2nc(CN3CCC(CCOc4ccc(F)c(F)c4)CC3)n(C)c12 [Example 1.2, 2-{4-[2-(3,4-Difluoro-phenoxy)-ethyl]-piperidin-1-ylmethyl}-1,7-dimethyl-1H-benzoimidazole]"
2,6.73,"Cn1c(CN2CCN(c3ccc(Cl)c(Cl)c3)CC2)nc2ccccc21 [Example 26.8, 2-[4-(3,4-Dichloro-phenyl)-piperazin-1-ylmethyl]-1-methyl-1H-benzoimidazole]"

# Further lines, the compound ahead of its results:
row,SMILES,pEC50
1,"Cc1cccc2nc(CN3CCC(c4ccc(F)cc4)CC3)n(C)c12 [Example 1.49, 2-[4-(4-Fluoro-phenyl)-piperidin-1-ylmethyl]-1,7-dimethyl-1H-benzoimidazole]",7.10
2,"CCn1c(CN2CCC(c3ccccc3)(c3ccccc3)CC2)nc2ccccc21 [Example 1.54, 2-(4,4-Diphenyl-piperidin-1-ylmethyl)-1-ethyl-1H-benzoimidazole]",5.98
3,"Cn1c(CN2CCC(O)(c3ccc(Cl)cc3)CC2)nc2ccccc21 [Example 1.75, 4-(4-Chloro-phenyl)-1-(1-methyl-1H-benzoimidazol-2-ylmethyl)-piperidin-4-ol]",5.06
